Data reported in patent US20260078130A1, “NAMPT MODULATORS, PREPARATIONS, AND USES THEREOF” (SIRONAX LTD., priority 2022, published 2026).
Like-named read-outs stand apart in the source and are kept apart here.

Experiments:
[1] = target: T1, human enzyme NAMPT (full length) (Homo sapiens, UniProt P43490); assay: NMN fluorescence biochemical assay (stimulation of NMN synthesis by NAMPT); conditions: for EC50: concentration giving half-maximal activation, read-out: Enzymatic EC50; for Enzymatic Emax: fold change of maximal activation compared to DMSO
T1 construct: human enzyme NAMPT (full length)
Procedure, shortened: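 Full-length human NAMPT (100 nM) was preincubated 15 min at 37 °C with compound in 50 mM Tris-HCl pH 7.5, 10 mM MgCl2, 2 mM DTT, then reacted 1 h at 37 °C with 50 μM NAM, 100 μM PRPP, 4 mM ATP (stated solution concentrations). NMN was derivatised with acetophenone/KOH then formic acid and read at Ex/Em 382/445 nm; EC50 and Emax (fold over DMSO) reported.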

[2] = tested on: endogenous NAMPT in U2OS cells; assay: Cellular NAD+ modulation assay (NAD/NADH-Glo, U2OS cells); assay type: cell-based; conditions: Homo sapiens; for maximal fold induction: read-out: Cellular Emax
Procedure, shortened: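 Endogenous NAMPT stimulation in U2OS cells treated with compound dilution series for 24 h at 37 °C. Cells lysed with DTAB base, acid-treated 15 min at 60 °C, neutralized, NAD+ read by NAD/NADH-Glo luminescence after 40 min at room temperature. EC50 and Emax (fold over DMSO) derived.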

[3] = NMN synthesis by purified human NAMPT (100 nM)
[4] = 24 hours incubation with compound
[5] = NMN fluorescence assay, purified human NAMPT 100 nM
[6] = 24 hours incubation, cellular NAD+

T1 sequence (P43490 whole entry): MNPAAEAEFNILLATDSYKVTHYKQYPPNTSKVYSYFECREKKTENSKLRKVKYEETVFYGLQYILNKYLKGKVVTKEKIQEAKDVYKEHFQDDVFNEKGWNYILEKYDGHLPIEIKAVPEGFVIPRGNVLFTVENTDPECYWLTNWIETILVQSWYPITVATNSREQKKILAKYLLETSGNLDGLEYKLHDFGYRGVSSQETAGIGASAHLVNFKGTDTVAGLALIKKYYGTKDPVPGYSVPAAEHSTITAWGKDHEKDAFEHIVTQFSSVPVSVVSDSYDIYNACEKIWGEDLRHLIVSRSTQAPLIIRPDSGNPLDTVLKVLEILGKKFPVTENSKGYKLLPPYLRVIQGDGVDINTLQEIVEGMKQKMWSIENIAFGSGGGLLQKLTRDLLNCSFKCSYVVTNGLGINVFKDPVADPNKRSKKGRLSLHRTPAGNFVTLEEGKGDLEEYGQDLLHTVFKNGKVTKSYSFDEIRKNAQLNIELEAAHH

Structure (SMILES) | EC50 [1, 3] [nM] | Enzymatic Emax [1] | EC50 [2, 4] [nM] | EC50 [1, 5] [nM] | EC50 [2, 6] [nM] | maximal fold induction [2, 4] | maximal fold induction [2, 6]
O=C1c2ncccc2CN1Cc1ccc(O)cc1 [Compound 40, 6-(4-hydroxybenzyl)-5,6-dihydro-7H-pyrrolo[3,4-b]pyridin-7-one] | ≥ 5000 | B (3≥B>2) | 5000 to 50000 |  |  | 1.2 to 1.5 | 
Cn1ncc(Cl)c1CC1c2ccccc2C(=O)N1Cc1cnc(O)o1 (centres unmarked) [Compound 605, 3-((4-chloro-1-methyl-1H-pyrazol-5-yl)methyl)-2-((2-hydroxyoxazol-5-yl)methyl)isoindolin-1-one] |  | A (A>3) |  | 500 to 5000 | < 500 |  | > 1.5
Cn1c2ccccc2c(=O)n1Cc1ccc(O)cc1 [Compound 23, 2-(4-hydroxybenzyl)-1-methyl-1,2-dihydro-3H-indazol-3-one] | ≥ 5000 | A (A>3) | 500 to 5000 |  |  | > 1.5 | 
Cn1nc(CN2CCOCC2)c(Cl)c1CC1c2ccccc2C(=O)N1CC1CC2(CNC(=O)O2)C1 (centres unmarked) [Compound 522, 2-((1-((4-chloro-1-methyl-3-(morpholinomethyl)-1H-pyrazol-5-yl)methyl)-3-oxoisoindolin-2-yl)methyl)-5-oxa-7-azaspiro[3.4]octan-6-one] |  | B (3≥B>2) |  | 500 to 5000 | 500 to 5000 |  | > 1.5
O=C1c2cccc(Br)c2CN1Cc1ccc(O)cc1 [Compound 21, 4-bromo-2-(4-hydroxybenzyl) isoindolin-1-one] | 500 to 5000 | B (3≥B>2) | 5000 to 50000 |  |  | 1.2 to 1.5 | 
Cn1cnc(Cl)c1CC1c2ccccc2C(=O)N1CC1CC2(CNC(=O)O2)C1 (centres unmarked) [Compound 468, 2-((1-((4-chloro-1-methyl-1H-imidazol-5-yl)methyl)-3-oxoisoindolin-2-yl)methyl)-5-oxa-7-azaspiro[3.4]octan-6-one] |  | B (3≥B>2) |  | 500 to 5000 | 500 to 5000 |  | > 1.5
O=c1[nH]c2ccc(CN3Cc4ccccc4S3(=O)=O)cc2o1 [Compound 9, 6-((1,1-dioxidobenzo[d]isothiazol-2(3H)-yl)methyl)benzo[d]oxazol-2(3H)-one] | 500 to 5000 | B (3≥B>2) | 500 to 5000 |  |  | > 1.5 | 
Cn1ncc(Cl)c1CC1c2ccc(Cl)cc2C(=O)N1Cc1ccc2[nH]nnc2c1 (centres unmarked) [Compound 343, 2-((1H-benzo[d][1,2,3]triazol-5-yl)methyl)-6-chloro-3-((4-chloro-1-methyl-1H-pyrazol-5-yl)methyl)isoindolin-1-one] |  | A (A>3) |  | < 500 | < 500 |  | > 1.5
N#Cc1ccccc1CC1c2ccccc2C(=O)N1Cc1ccc(O)cc1 (centres unmarked) [Compound 169, 2-((2-(4-hydroxybenzyl)-3-oxoisoindolin-1-yl)methyl)benzonitrile] | < 500 | B (3≥B>2) | < 500 |  |  | > 1.5 | 
Cn1ncc(Cl)c1CC1c2ccccc2C(C)(C)N1Cc1cnc(O)s1 (centres unmarked) [Compound 614, 5-((3-((4-chloro-1-methyl-1H-pyrazol-5-yl)methyl)-1,1-dimethylisoindolin-2-yl)methyl)thiazol-2-ol] |  | B (3≥B>2) |  | 500 to 5000 | 5000 to 50000 |  | ≤ 1.2
COc1ncc(CN2C(=O)c3ccccc3C2Cc2c(Cl)cnn2C)s1 (centres unmarked) [Compound 591, 3-((4-chloro-1-methyl-1H-pyrazol-5-yl)methyl)-2-((2-methoxythiazol-5-yl)methyl)isoindolin-1-one] |  | B (3≥B>2) |  | ≥ 5000 | 500 to 5000 |  | 1.2 to 1.5
Cn1ncc(Cl)c1CC1c2cc(OC(F)F)ccc2C(=O)N1CC1CC2(CNC(=O)O2)C1 (centres unmarked) [Compound 541, 2-((3-((4-chloro-1-methyl-1H-pyrazol-5-yl)methyl)-5-(difluoromethoxy)-1-oxoisoindolin-2-yl)methyl)-5-oxa-7-azaspiro[3.4]octan-6-one] |  | B (3≥B>2) |  | 500 to 5000 | < 500 |  | > 1.5
O=c1ccc2ccccc2n1Cc1ccc(O)cc1 [Compound 5, 1-(4-hydroxybenzyl)quinolin-2(1H)-one] | ≥ 5000 | A (A>3) | 500 to 5000 |  |  | 1.2 to 1.5 | 
O=C1c2ccccc2C(Cc2ncccc2Br)N1C/C(F)=C/c1c[nH]nn1 (centres unmarked) [Compound 314, (Z)-3-((3-bromopyridin-2-yl)methyl)-2-(2-fluoro-3-(1H-1,2,3-triazol-4-yl)allyl)isoindolin-1-one] | < 500 | B (3≥B>2) | < 500 |  |  | > 1.5 | 
Cn1ncc(Cl)c1CC1c2ccccc2C(=O)N1CC1CC2(CNC(=O)S2)C1 (centres unmarked) [Compound 568, 2-((1-((4-chloro-1-methyl-1H-pyrazol-5-yl)methyl)-3-oxoisoindolin-2-yl)methyl)-5-thia-7-azaspiro[3.4]octan-6-one] |  | B (3≥B>2) |  | < 500 | < 500 |  | 1.2 to 1.5
CN1CCn2c(cc(Cl)c2CC2c3ccccc3C(=O)N2CC2CC3(CNC(=O)O3)C2)C1 (centres unmarked) [Compound 484, 2-((1-((7-chloro-2-methyl-1,2,3,4-tetrahydropyrrolo[1,2-a]pyrazin-6-yl)methyl)-3-oxoisoindolin-2-yl)methyl)-5-oxa-7-azaspiro[3.4]octan-6-one] |  | B (3≥B>2) |  | 500 to 5000 | < 500 |  | 1.2 to 1.5

The next lines start with results.

EC50 [1, 3] [nM] | Enzymatic Emax [1] | EC50 [2, 4] [nM] | EC50 [1, 5] [nM] | EC50 [2, 6] [nM] | Structure (SMILES) | maximal fold induction [2, 4] | maximal fold induction [2, 6]
≥ 5000 | B (3≥B>2) | 500 to 5000 |  |  | CC1c2cc(CN(C)C)ccc2C(=O)N1Cc1ccc2[nH]c(=O)oc2c1 (single isomer, unassigned) [Compound 273] | 1.2 to 1.5 | 
< 500 | B (3≥B>2) | < 500 |  |  | N#Cc1cccc(Cl)c1CC1c2ccccc2C(=O)N1Cc1ccc2[nH]c(=O)oc2c1 (centres unmarked) [Compound 190, 3-chloro-2-((3-oxo-2-((2-oxo-2,3-dihydrobenzo[d]oxazol-6-yl)methyl)isoindolin-1-yl)methyl)benzonitrile] | > 1.5 | 
 | A (A>3) |  | 500 to 5000 | < 500 | Cn1nc(Cl)c(CC2c3ccccc3C(=O)N2Cc2ccc3[nH]nnc3c2)n1 (centres unmarked) [Compound 335, 2-((1H-benzo[d][1,2,3]triazol-5-yl)methyl)-3-((5-chloro-2-methyl-2H-1,2,3-triazol-4-yl)methyl)isoindolin-1-one] |  | > 1.5
 | B (3≥B>2) |  | 500 to 5000 | < 500 | COc1ccc(CN2C(=O)c3ccccc3C2Cc2c(Cl)cnn2C)cc1F (centres unmarked) [Compound 517, 3-((4-chloro-1-methyl-1H-pyrazol-5-yl)methyl)-2-(3-fluoro-4-methoxybenzyl)isoindolin-1-one] |  | 1.2 to 1.5
 | B (3≥B>2) |  | < 500 | 500 to 5000 | O=C1c2ccccc2C(Cc2n[nH]cc2Cl)N1Cc1ccc2[nH]nnc2c1 (centres unmarked) [Compound 388, 2-((1H-benzo[d][1,2,3]triazol-5-yl)methyl)-3-((4-chloro-1H-pyrazol-3-yl)methyl)isoindolin-1-one] |  | > 1.5
< 500 | A (A>3) | < 500 |  |  | O=C1c2ccccc2C(Cc2ncccc2Cl)N1Cc1ccc2[nH]c(=O)oc2c1 (centres unmarked) [Compound 159, 6-((1-((3-chloropyridin-2-yl)methyl)-3-oxoisoindolin-2-yl)methyl)benzo[d]oxazol-2(3H)-one] | > 1.5 | 
 | C (2≥C) |  | ≥ 5000 | 5000 to 50000 | Cn1ncc(Cl)c1CC1c2ccccc2C(=O)N1Cc1ccc2nonc2c1 (centres unmarked) [Compound 600, 2-(benzo[c][1,2,5]oxadiazol-5-ylmethyl)-3-((4-chloro-1-methyl-IH-pyrazol-5-yl)methyl)isoindolin-1-one] |  | ≤ 1.2
≥ 5000 | A (A>3) | 5000 to 50000 |  |  | O=C1c2ccccc2C(Cc2ncco2)N1Cc1ccc2[nH]c(=O)oc2c1 (centres unmarked) [Compound 150, 6-((1-(oxazol-2-ylmethyl)-3-oxoisoindolin-2-yl)methyl)benzo[d]oxazol-2(3H)-one] | > 1.5 | 
 | B (3≥B>2) |  | < 500 | < 500 | CN(C)c1nn(C)c(CC2c3ccccc3C(=O)N2Cc2ccc3[nH]nnc3c2)c1Cl (centres unmarked) [Compound 420, 2-((1H-benzo[d][1,2,3]triazol-5-yl)methyl)-3-((4-chloro-3-(dimethylamino)-1-methyl-1H-pyrazol-5-yl)methyl)isoindolin-1-one] |  | > 1.5
≥ 5000 | A (A>3) | 500 to 5000 |  |  | CC1c2cc(NC3CCCC3)ccc2C(=O)N1Cc1ccc2[nH]c(=O)oc2c1 (centres unmarked) [Compound 81, 6-((5-(cyclopentylamino)-3-methyl-1-oxoisoindolin-2-yl)methyl)benzo[d]oxazol-2(3H)-one] | 1.2 to 1.5 | 
